Results taken from US20160067331A1 (priority 2013, published 2016).

Columns and labels:
Lck = Lck (Homo sapiens, UniProt P06239); assay type: biochemical
[1] = tested on: T cell receptor (TCR) signaling; assay type: cell-based, human

Sequence of Lck (P06239 whole entry): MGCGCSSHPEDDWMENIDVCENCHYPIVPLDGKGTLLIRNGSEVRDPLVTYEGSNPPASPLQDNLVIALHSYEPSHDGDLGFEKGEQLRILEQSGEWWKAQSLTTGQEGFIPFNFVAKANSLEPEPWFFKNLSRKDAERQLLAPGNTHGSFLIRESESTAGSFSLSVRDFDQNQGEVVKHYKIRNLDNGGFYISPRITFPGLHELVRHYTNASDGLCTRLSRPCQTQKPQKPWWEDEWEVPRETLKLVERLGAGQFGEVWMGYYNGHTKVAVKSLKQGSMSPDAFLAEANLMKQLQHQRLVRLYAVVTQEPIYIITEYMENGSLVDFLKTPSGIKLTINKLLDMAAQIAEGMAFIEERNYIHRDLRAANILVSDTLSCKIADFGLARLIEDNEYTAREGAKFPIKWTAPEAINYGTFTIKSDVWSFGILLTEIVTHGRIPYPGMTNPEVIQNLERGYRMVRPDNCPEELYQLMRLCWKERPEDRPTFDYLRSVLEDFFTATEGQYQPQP

Sequence	Lck-mediated phosphorylation of synthetic peptide (Lck)	IL-2 production by PBMCs following TCR stimulation [1]	surface expression of T cell activation marker CD25 [1]	surface expression of T cell activation marker CD69 [1]
GGGGGRKKRRQRRRVYGSVSVTCVWGS [TAT-Y87]	phosphorylated by Lck in a dose-dependent manner	inhibited	significantly reduced	significantly reduced
GGAGLTGGRYEPLVRRC [TAT-276-292]	served as an in vitro Lck substrate	–	–	–
